Assay results taken from patent US11179396B2, “Heterocyclic compounds as antibacterials” (Janssen Sciences Ireland Unlimited Company, priority 2016, dated 2021).
In brackets after ≈: the same amount, converted by molar mass.

Test system: Mycobacterium tuberculosis strain EH 4.0 (361.269)
Experiment: Test 4: resazurin growth inhibition assay, M. tuberculosis strain EH 4.0
Format: cell-based
Conditions: read-out: pIC50 (converted)
From the text: Test 4 (See Also Test 1 Above; in this Test a Different Strain of Mycobacterium tuberculosis Strain is Employed)
Appropriate solutions of experimental and reference compounds were made in 96 well plates with 7H9 medium. Samples of Mycobacterium tuberculosis strain EH 4.0 (361.269) were taken from cultures in stationary growth phase. These were first diluted to obtain an optical density of 0.3 at 600 nm wavelength and then diluted 1/100, resulting in an inoculum of approximately 5×10 exp5 colony forming units per well. Plates were incubated at 37° C. in plastic bags to prevent evaporation. After 7 days, resazurin was added to all wells. Two days later, fluorescence was measured on a Gemini EM Microplate Reader with 543 nm excitation and 590 nm emission wavelengths and MIC50 and/or pIC50 values (or the like, e.g. IC50, IC90, pIC90, etc) were (or may be) calculated. pIC50 values may be recorded below in μg/mL.

Point of comparison: CCc1nc2sc(C)cn2c1C(=O)NCc1ccc(N2CC3CC(F)CC3C2)cc1 (stereo not drawn) [Cpd 2], IC50 50.1 nM. Against it:
- CCc1nc2ccc(Cl)cn2c1C(=O)NCc1ccc(N2CC3CC(F)CC3C2)cc1 (stereo not drawn) [Cpd 1] — within 1.5-fold, 39.8 nM
- CCc1nc2n(c1C(=O)NCc1ccc(N3CC4CC(F)CC4C3)cc1)CCCC2 (stereo not drawn) [Cpd 3] — 2-fold higher, 100 nM
- CCc1nc2ncc(Cl)cn2c1C(=O)NCc1ccc(N2CC3CC(F)CC3C2)cc1 (stereo not drawn) [Cpd 4] — 2.2-fold higher, 112 nM
- CCc1nc2sc(C)cn2c1C(=O)NCc1ccc(N2CC3C(C2)C3C(F)(F)F)cc1 (stereo not drawn) [Cpd 7] — 1.6-fold lower, 31.6 nM
- Cc1nn2ccccc2c1C(=O)NCc1ccc(N2C[C@H]3C[C@H](F)C[C@H]3C2)cc1 [Cpd 8] — 22-fold higher, 1120 nM
- CCc1nc2ncc(Cl)cn2c1C(=O)NCc1ccc(N2C[C@@H]3CC(F)(F)C[C@@H]3C2)cc1 [Cpd 9] — 3.2-fold lower, 15.8 nM

Test system: M. tuberculosis
Experiment: not given
Conditions: cited from earlier work

For CCc1nc2ccc(Cl)cn2c1C(=O)NCc1ccc(N2CCC(c3ccc(OC(F)(F)F)cc3)CC2)cc1 [Compound Q203], the “activity against both replicating and non-replicating bacteria” value is given as “highly active”.

Test system: M. tuberculosis H37Rv
Experiment: not given
Conditions: strain M. tuberculosis H37Rv, inside macrophages; cited from earlier work

For CCc1nc2ccc(Cl)cn2c1C(=O)NCc1ccc(N2CCC(c3ccc(OC(F)(F)F)cc3)CC2)cc1 [Compound Q203], the MIC50 is given as 0.28 nM (≈ 0.156 ng/mL).
